According to publication PMC12383022, “Discovery of a Novel Antimicrobial Peptide from Paenibacillus sp. Na14 with Potent Activity Against Gram-Negative Bacteria and Genomic Insights into Its Biosynthetic Pathway” (Antibiotics, 2025):
Read-outs that look alike come from different tables or passages of the source. Where no end group is shown, it is not given here.

Tests used:
E. coli TISTR 887 [1] = type: cell-based, Escherichia coli; conditions: TISTR 887, 24 h
Procedure: (§1) A bacterial suspension was prepared by adjusting its turbidity at OD 625 nm to 0.1 and subsequently made a 20-fold dilution using Cation-Adjusted Mueller–Hinton broth (CAHMB) as a diluent. […] The diluted cell suspension (10 µL) was added to each well, and the plates were incubated at 37 °C for 24 h. The CAMHB alone was used as a negative control, while CAMHB containing colistin or vancomycin served as a positive control.

P. aeruginosa TISTR 357 [2] = type: cell-based, Pseudomonas aeruginosa; conditions: TISTR 357, 24 h
Procedure: as §1

K. pneumoniae TISTR 1383 [3] = type: cell-based, Klebsiella pneumoniae; conditions: TISTR 1383, 24 h
Procedure: as §1

MRSA Strain 2468 = assay: microbe, parasite or virus in culture; type: cell-based, Staphylococcus aureus; conditions: Strain 2468, 24 h
Procedure: as §1

S. aureus TISTR 517 = assay: microbe, parasite or virus in culture; type: cell-based, Staphylococcus aureus; conditions: TISTR 517, 24 h
Procedure: as §1

E. coli TISTR 887 [4] = assay: Time–kill assay; type: cell-based, Escherichia coli
Procedure: (§2) The cultures were diluted 20-fold using CAMHB. […] The diluted bacterial suspension (10 μL) was mixed into each well before incubating the plates at 37 °C. At predetermined time points, 100 μL of either diluted or undiluted samples from each well were plated on MH agar and incubated at 37 °C for 24 h. Bacterial viability was assessed by colony counting and expressed as log CFU/mL [56].

P. aeruginosa TISTR 357 [5] = assay: Time–kill assay; type: cell-based, Pseudomonas aeruginosa
Procedure: as §2

K. pneumoniae TISTR 1383 [6] = assay: Time–kill assay; type: cell-based, Klebsiella pneumoniae
Procedure: as §2

[7] = tested on: E. coli TISTR 887, P. aeruginosa TISTR 357, K. pneumoniae TISTR 1383; assay: Time–kill kinetic assay, statement for all tested strains; type: cell-based; conditions: peptide at 1× MIC
Procedure: as §2

E. coli TISTR 887 [8] = assay: Antimicrobial activity of purification fractions (arbitrary units, two-fold dilutions, agar well diffusion); type: cell-based, Escherichia coli; conditions: against E. coli TISTR 887
Procedure: Single colonies of the Na14 isolate were resuspended in 0.9% NaCl solution, and the cell suspension was adjusted to an OD of 0.35 at 625 nm. A 2% aliquot of this suspension was inoculated into 196 mL of LB broth and incubated at 37 °C for 24 h. The CFS was collected by centrifugation at 10,000× g for 15 min at 4 °C. Bioactive compounds were then precipitated using stepwise ammonium sulfate precipitation at 25%, 50%, and 75% saturation levels. The active compounds were purified using cation exchange chromatography (CIEX) followed by reversed-phase chromatography (RPC), as described in our previous study. The purified compounds were concentrated using a refrigerated speed vacuum concentrator. The dried samples were reconstituted in deionized water and subjected to two-fold serial dilutions. An aliquot (100 µL) of each dilution was used to evaluate antimicrobial activity using the agar well diffusion method, employing E. coli TISTR 887 as the tested bacteria. The purification efficiency was assessed by calculating antimicrobial activity at each purification stage using the following equation [49]. Antimicrobial activity (arbitrary unit/mL; AU/mL)= 2^n × 1000/V where n represents the reciprocal of the highest two-fold dilution that produces a visible inhibition zone, and V denotes the volume of the sample in µL.

E. coli TISTR 887 [9] = assay: SDS-PAGE gel overlay inhibition assay; type: cell-based, Escherichia coli; conditions: 15% SDS-PAGE gel overlaid with soft agar containing E. coli TISTR 887; at the position of the peptide band
Procedure: The peptides ([…]) were subjected to analysis using a 15% sodium dodecyl sulfate-polyacrylamide gel electrophoresis (SDS-PAGE). The gel was electrophoresed at a constant voltage of 100 V. One half of the gel was stained using Coomassie brilliant blue G-250 to visualize protein bands, with a molecular weight marker included to facilitate band position comparison. The remaining half was fixed in a solution containing 5% acetic acid and 25% methanol for 30 min, followed by a 3 h wash with distilled water. Subsequently, 18 mL of soft MH agar, including E. coli TISTR 887, was overlaid onto the gel to assess antimicrobial activity by observing inhibition zones after incubation at 37 °C for 24 h.

E. coli TISTR 887 [10] = conditions: agar well diffusion vs untreated control, mean ± SD, three independent experiments
Procedure: (§3) The purified Na14 AMP was prepared at a concentration of 10× MIC. Thermal stability was assessed by incubating the peptide at 30 °C, 50 °C, 70 °C, and 90 °C for 3 h. pH stability was evaluated by adjusting the peptide solution to pH 3, 5, 7, 9, and 11 using 1 N HCl or 1 N NaOH, followed by incubation at 37 °C for 3 h and subsequent neutralization to the original pH. […] The residual antimicrobial activity of each treatment condition was determined using an agar well diffusion assay against E. coli TISTR 887, P. aeruginosa TISTR 357, and K. pneumoniae TISTR 1383 to cross-validate efficacy across multiple pathogens. The untreated peptide served as a control. Statistical significance was analyzed using one-way ANOVA, with comparisons to the control group considered significant at p-value < 0.05. The results are presented as the percentage of residual antimicrobial activity.

P. aeruginosa TISTR 357 [11] = conditions: agar well diffusion vs untreated control, mean ± SD, three independent experiments
Procedure: as §3

K. pneumoniae TISTR 1383 [12] = conditions: agar well diffusion vs untreated control, mean ± SD, three independent experiments
Procedure: as §3

E. coli = tested on: E. coli; set-up: method as in PMID 36912655; conditions: cited from earlier work
[13] = peptide at 0.5× MIC, growth resumed thereafter until 24 h
[14] = peptide at 1× MIC, CAMHB, 37 °C, LOD 10 CFU/mL
[15] = peptide at 2× MIC, CAMHB, 37 °C, LOD 10 CFU/mL
[16] = peptide at 10× MIC adjusted to pH 3 (1 N HCl or 1 N NaOH), 37 °C, 3 h, then neutralized
[17] = peptide at 10× MIC adjusted to pH 5, 37 °C, 3 h, then neutralized
[18] = peptide at 10× MIC adjusted to pH 7, 37 °C, 3 h, then neutralized
[19] = peptide at 10× MIC adjusted to pH 9, 37 °C, 3 h, then neutralized
[20] = peptide at 10× MIC adjusted to pH 11, 37 °C, 3 h, then neutralized
[21] = peptide at 10× MIC incubated at 30 °C for 3 h
[22] = peptide at 10× MIC incubated at 50 °C for 3 h
[23] = peptide at 10× MIC incubated at 70 °C for 3 h
[24] = peptide at 10× MIC incubated at 90 °C for 3 h

Substance: LALLVVVKVLKYVV [Na14 peptide]
- MBC, E. coli TISTR 887 (E. coli TISTR 887 [1]): 2 mg/L
- MIC, E. coli TISTR 887 (E. coli TISTR 887 [1]): 2 mg/L
- MBC, P. aeruginosa TISTR 357 (P. aeruginosa TISTR 357 [2]): 2 mg/L
- MIC, P. aeruginosa TISTR 357 (P. aeruginosa TISTR 357 [2]): 2 mg/L
- MBC, K. pneumoniae TISTR 1383 (K. pneumoniae TISTR 1383 [3]): 4 mg/L
- MIC, K. pneumoniae TISTR 1383 (K. pneumoniae TISTR 1383 [3]): 4 mg/L
- MBC, MRSA strain 2468 (MRSA Strain 2468): >128 mg/L
- MIC, MRSA strain 2468 (MRSA Strain 2468): >128 mg/L
- MBC, S. aureus TISTR 517 (S. aureus TISTR 517): >128 mg/L
- MIC, S. aureus TISTR 517 (S. aureus TISTR 517): >128 mg/L
- duration of temporary growth suppression, E. coli TISTR 887 (E. coli TISTR 887 [4]; [13]): 3 h
- time at which bacteria were eliminated, E. coli TISTR 887 (E. coli TISTR 887 [4]; [14]): 12 h
- time of complete eradication, E. coli TISTR 887 (E. coli TISTR 887 [4]; [15]): 6 h
- duration of temporary growth suppression, P. aeruginosa TISTR 357 (P. aeruginosa TISTR 357 [5]; [13]): 3 h
- time at which bacteria were eliminated, P. aeruginosa TISTR 357 (P. aeruginosa TISTR 357 [5]; [14]): 6 h
- time of complete eradication, P. aeruginosa TISTR 357 (P. aeruginosa TISTR 357 [5]; [15]): 3 h
- duration of growth inhibition, K. pneumoniae TISTR 1383 (K. pneumoniae TISTR 1383 [6]; [13]): up to 6 h
- time at which bacteria were eliminated, K. pneumoniae TISTR 1383 (K. pneumoniae TISTR 1383 [6]; [14]): 9 h
- time of complete eradication, K. pneumoniae TISTR 1383 (K. pneumoniae TISTR 1383 [6]; [15]): 6 h
- reduction of bacterial counts [7]: more than 3 log units
- Specific Activity (E. coli TISTR 887 [8]; purification balance sheet): 835.99 AU/mg
- Arbitrary Activity (E. coli TISTR 887 [8]; two-fold serial dilutions, 100 µL, agar well diffusion, AU/mL = 2^n × 1000/V): 320 AU/mL
- gel overlay inhibition of E. coli TISTR 887 (E. coli TISTR 887 [9]): An inhibition zone was observed
- Residual Antimicrobial Activity, E. coli TISTR 887 (E. coli TISTR 887 [10]; [16]): 100.64 ± 2.30%
- Residual Antimicrobial Activity, E. coli TISTR 887 (E. coli TISTR 887 [10]; [17]): 100.85 ± 1.95%
- Residual Antimicrobial Activity, E. coli TISTR 887 (E. coli TISTR 887 [10]; [18]): 99.36 ± 2.93%
- Residual Antimicrobial Activity, E. coli TISTR 887 (E. coli TISTR 887 [10]; [19]): 98.72 ± 1.28%
- Residual Antimicrobial Activity, E. coli TISTR 887 (E. coli TISTR 887 [10]; [20]): 98.51 ± 1.33%
- Residual Antimicrobial Activity, E. coli TISTR 887 (E. coli TISTR 887 [10]; [21]): 98.24 ± 1.67%
- Residual Antimicrobial Activity, E. coli TISTR 887 (E. coli TISTR 887 [10]; [22]): 99.12 ± 1.02%
- Residual Antimicrobial Activity, E. coli TISTR 887 (E. coli TISTR 887 [10]; [23]): 98.89 ± 2.03%
- Residual Antimicrobial Activity, E. coli TISTR 887 (E. coli TISTR 887 [10]; [24]): 98.46 ± 1.55%
- Residual Antimicrobial Activity, P. aeruginosa TISTR 357 (P. aeruginosa TISTR 357 [11]; [16]): 99.58 ± 0.74%
- Residual Antimicrobial Activity, P. aeruginosa TISTR 357 (P. aeruginosa TISTR 357 [11]; [17]): 99.36 ± 1.69%
- Residual Antimicrobial Activity, P. aeruginosa TISTR 357 (P. aeruginosa TISTR 357 [11]; [18]): 99.36 ± 3.18%
- Residual Antimicrobial Activity, P. aeruginosa TISTR 357 (P. aeruginosa TISTR 357 [11]; [19]): 98.73 ± 2.30%
- Residual Antimicrobial Activity, P. aeruginosa TISTR 357 (P. aeruginosa TISTR 357 [11]; [20]): 98.30 ± 2.24%
- Residual Antimicrobial Activity, P. aeruginosa TISTR 357 (P. aeruginosa TISTR 357 [11]; [21]): 98.08 ± 1.11%
- Residual Antimicrobial Activity, P. aeruginosa TISTR 357 (P. aeruginosa TISTR 357 [11]; [22]): 98.51 ± 0.37%
- Residual Antimicrobial Activity, P. aeruginosa TISTR 357 (P. aeruginosa TISTR 357 [11]; [23]): 98.72 ± 0.64%
- Residual Antimicrobial Activity, P. aeruginosa TISTR 357 (P. aeruginosa TISTR 357 [11]; [24]): 97.22 ± 1.62%
- Residual Antimicrobial Activity, K. pneumoniae TISTR 1383 (K. pneumoniae TISTR 1383 [12]; [16]): 100.43 ± 0.37%
- Residual Antimicrobial Activity, K. pneumoniae TISTR 1383 (K. pneumoniae TISTR 1383 [12]; [17]): 99.14 ± 1.35%
- Residual Antimicrobial Activity, K. pneumoniae TISTR 1383 (K. pneumoniae TISTR 1383 [12]; [18]): 98.06 ± 2.34%
- Residual Antimicrobial Activity, K. pneumoniae TISTR 1383 (K. pneumoniae TISTR 1383 [12]; [19]): 97.62 ± 2.08%
- Residual Antimicrobial Activity, K. pneumoniae TISTR 1383 (K. pneumoniae TISTR 1383 [12]; [20]): 99.57 ± 2.08%
- Residual Antimicrobial Activity, K. pneumoniae TISTR 1383 (K. pneumoniae TISTR 1383 [12]; [21]): 100.89 ± 0.39%
- Residual Antimicrobial Activity, K. pneumoniae TISTR 1383 (K. pneumoniae TISTR 1383 [12]; [22]): 98.21 ± 4.09%
- Residual Antimicrobial Activity, K. pneumoniae TISTR 1383 (K. pneumoniae TISTR 1383 [12]; [23]): 98.66 ± 4.07%
- Residual Antimicrobial Activity, K. pneumoniae TISTR 1383 (K. pneumoniae TISTR 1383 [12]; [24]): 99.11 ± 1.39%

Substance: brevicidine
- viability of E. coli at lower concentrations (E. coli; 0.5× to 2× MIC): remained viable
- time to eradication of E. coli (E. coli; peptide at 4× MIC): 1 h
